Format in all cases: cell-based
In experiment [1] the test system is Aβ42. The experiment in a line: Method 1: Aβ42 sandwich ELISA in supernatant of SKNBE2 cells carrying APP 695-wild type (Tables 7a, 7b). A digest of the protocol: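 SKNBE2 cells expressing wild-type APP695 were exposed to compound for 18 hours. Secreted Aβ42 was quantified by sandwich ELISA with C-terminal-selective capture, biotinylated 3D6 detection and TMB read-out at 450 nm. IC50 came from 4-parameter fits of % inhibition or % of untreated control; WST-1 monitored toxicity.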
On the technique in general: ELISA stands for enzyme-linked immunosorbent assay.

Experiment [2] relates to Aβtotal. The experiment in a line: Method 1: Aβtotal sandwich ELISA in supernatant of SKNBE2 cells carrying APP 695-wild type (Tables 7a, 7b). The procedure, abridged:
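SKNBE2 cells expressing wild-type APP695 were exposed to compound for 18 Hours in Ultraculture with 1% glutamine. Aβtotal in the supernatant was read by 6E10-capture/biotinylated 4G8 sandwich ELISA with a fluorogenic peroxidase read-out, and WST-1 checked toxicity. IC50 came from a 4-parameter fit of percent inhibition or percent of control versus concentration.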

The test system of experiment [3] is Aβ42. Kind of experiment: Method 2: Aβ42 Alphalisa in supernatant of SKNBE2 cells carrying APP 695-wild type (Table 7c). The note with it: Method 2, Alphalisa, overnight incubation. The method, then:
(§1) Screening was carried out using SKNBE2 cells carrying the APP 695-wild type, grown in Dulbecco's Modified Eagle's Medium/Nutrient mixture F-12 (DMEM/NUT-mix F-12) (HAM) provided by Invitrogen (cat no. 10371-029) containing 5% Serum/Fe supplemented with 1% non-essential amino acids, 1-glutamine 2 mM, Hepes 15 mM, penicillin 50 U/ml (units/ml) en streptomycin 50 μg/ml. Cells were grown to near confluency.
(§2) The screening was performed using a modification of the assay as described in Citron et al (1997) Nature Medicine 3: 67. Briefly, cells were plated in a 384-well plate at 10^4 cells/well in Ultraculture (Lonza, BE12-725F) supplemented with 1% glutamine (Invitrogen, 25030-024), 1% non-essential amino acid (NEAA), penicillin 50 U/ml en streptomycin 50 μg/ml in the presence of test compound at different test concentrations. The cell/compound mixture was incubated overnight at 37° C., 5% CO2. The next day the media were assayed by two sandwich immuno-assays, for Aβ42 and Aβtotal.
(§3) Aβtotal and Aβ42 concentrations were quantified in the cell supernatant using the Aphalisa technology (Perkin Elmer). Alphalisa is a sandwich assay using biotinylated antibody attached to streptavidin coated donorbeads and antibody conjugated to acceptor beads. In the presence of antigen, the beads come into close proximity. The excitation of the donor beads provokes the release of singlet oxygen molecules that trigger a cascade of energy transfer in the acceptor beads, resulting in light emission. To quantify the amount of Aβ42 in the cell supernatant, monoclonal antibody specific to the C-terminus of Aβ42 (JRF/cAβ42/26) was coupled to the receptor beads and biotinylated antibody specific to the N-terminus of Aβ (JRF/AβN/25) was used to react with the donor beads. To quantify the amount of Aβtotal in the cell supernatant, monoclonal antibody specific to the N-terminus of Aβ (JRF/AβN/25) was coupled to the receptor beads and biotinylated antibody specific to the mid region of Aβ (biotinylated 4G8) was used to react with the donor beads.
(§4) To obtain the values reported in Table 7c, the data were calculated as percentage of the maximum amount of amyloid Beta 42 measured in the absence of the test compound. The sigmoidal dose response curves were analyzed using non-linear regression analysis with percentage of the control plotted against the log concentration of the compound. A 4-parameter equation was used to determine the IC50.

For experiment [4], the system named is Aβtotal. Kind of experiment: Method 2: Aβtotal Alphalisa in supernatant of SKNBE2 cells carrying APP 695-wild type (Table 7c). Particulars: Method 2, Alphalisa, overnight incubation. The method, then:
as §1, §2, §3, §4

Where [5] appears, read: Table 7b, averaged IC50, non-linear regression of percentage of control vs log concentration, 4-parameter equation.
Where [6] appears, read: Table 7a, SKNBE2 cells, compounds 18 h, XLfit 4-parameter fit of percent inhibition, top/bottom fixed to 100/0, hill slope 1.

A word on the IC50: it is the concentration that inhibits the measured activity by half. Low readings indicate inhibition by little substance, high ones a need for much substance. For `Cc1ncc(-c2ccc(Nc3cccc4c3nc(C(C)c3ccc(Cl)cc3)n4C)cn2)o1` (racemic) [Compound 87], the 50% inhibitory concentration (IC50) in experiment [1] (setting [5]) is 0.251 µM; in experiment [2] (setting [5]), > 10 µM; in experiment [3], 0.288 µM; in experiment [4], 9.12 µM.
As to `Cc1ncc(-c2ccc(Nc3nccc4c3nc(-c3ccc(F)cc3)n4C(C)C)cc2)o1` [Compound 26], the IC50 in experiment [1] (setting [5]) was 0.871 µM; in experiment [2] (setting [5]), > 30 µM; in experiment [3], 0.191 µM; in experiment [4] it was > 10 µM.
On to `Cc1ncoc1-c1ccc(Nc2cccc3c2nc(-c2ccc(F)cc2)n3C)cn1` [Compound 35], for which the half-inhibitory concentration (IC50) in experiment [1] (setting [6]) was 0.09 µM; in experiment [1] (setting [5]) it was 0.089 µM; in experiment [2] (setting [6]) it was > 3 µM; in experiment [3], 0.214 µM; in experiment [4], > 10 µM.
For the compound `Cc1ncc(-c2ccc(Nc3cccn4c(C)c(-c5ccccc5Cl)nc34)cc2)o1` [Compound 49], the IC50 in experiment [1] (setting [6]) was 0.021 µM; in experiment [1] (setting [5]), 0.02 µM; in experiment [2] (setting [6]) it was > 3 µM; in experiment [2] (setting [5]), > 3 µM; in experiment [3], 0.04 µM; in experiment [4], > 10 µM.
For `Cc1ncc(-c2ccc(Nc3cccn4cc(-c5cc(C(F)(F)F)ccc5C)nc34)cc2)o1` [Compound 50], the concentration for half-maximal inhibition (IC50) in experiment [1] (setting [6]) is 0.038 µM; in experiment [1] (setting [5]) it was 0.02 µM; in experiment [2] (setting [6]), > 3 µM; in experiment [2] (setting [5]), > 3 µM; in experiment [3], 0.072 µM; in experiment [4] it was > 10 µM.
As for `Cc1ncoc1-c1ccc(Nc2cccc3c2nc(-c2ccc(F)cc2)n3C(C)C)cc1F` [Compound 65], the IC50 in experiment [1] (setting [5]) is 0.083 µM; in experiment [2] (setting [5]), > 3 µM; in experiment [3] it was 0.117 µM; in experiment [4], > 10 µM.
For the compound `Cc1ncc(-c2ccc(Nc3nccc4c3nc(CC3CC3)n4C)cc2F)o1` [Compound 66], the IC50 was > 3 µM in experiment [1] (setting [5]), > 10 µM in experiment [3] and > 10 µM in experiment [4].
For the compound `Cc1nc(C)c(-c2ccc(Nc3cc(F)cc4c3nc(-c3ccccc3Cl)n4C)cn2)o1` [Compound 79], the IC50 is 0.028 µM in experiment [1] (setting [5]), > 3 µM in experiment [2] (setting [5]), 0.076 µM in experiment [3] and > 10 µM in experiment [4].
On to `Cc1nc(C)c(-c2ccc(Nc3cccc4c3nc(-c3ccc(F)cc3)n4C(C)C)cn2)o1` [Compound 82], for which the IC50 in experiment [1] (setting [5]) is 0.037 µM; in experiment [2] (setting [5]), > 3 µM; in experiment [3], 0.049 µM; in experiment [4] it was > 10 µM.
In the same order, the values of `Cc1ncc(-c2ccc(Nc3nccc4c3nc(-c3ccccc3Cl)n4C)cn2)o1` [Compound 85] are 0.066 µM, > 3 µM, 0.363 µM and > 10 µM.
Take `Cc1ncc(-c2ccc(Nc3cc(C#N)cc4c3nc(-c3ccc(F)cc3)n4C)cn2)o1` [Compound 86]: the IC50 in experiment [1] (setting [5]) was 0.019 µM; in experiment [2] (setting [5]) it was > 3 µM; in experiment [3], 0.052 µM; in experiment [4], > 10 µM.
With `Cc1ncc(-c2ccc(Nc3cccc4c3nc(C3(c5ccc(Cl)cc5)CC3)n4C)cn2)o1` [Compound 88], the IC50 was 0.066 µM in experiment [1] (setting [5]), > 10 µM in experiment [2] (setting [5]), 0.058 µM in experiment [3] and 8.91 µM in experiment [4].
As for `COc1cc(Nc2cccc3c2nc(C2CCOCC2)n3C(C)C)ccc1-c1cnc(C)o1` [Compound 93], the figures for the IC50 in experiment [1] (setting [5]), in experiment [3] and in experiment [4] were 1.86 µM, 2.75 µM and > 10 µM, respectively.
`Cc1ncc(-c2ccc(Nc3cc(F)cc4c3nc(-c3ccccc3Cl)n4C)cn2)o1` [Compound 107]: the IC50 in experiment [1] (setting [5]) was 0.018 µM; in experiment [2] (setting [5]), > 3 µM; in experiment [3] it was 0.025 µM; in experiment [4] it was > 10 µM.
In the case of `Cc1cc2c(nc(-c3cccc(Cl)c3)n2C)c(Nc2ccc(-c3ocnc3C)nc2)n1` [Compound 111], the IC50 is 0.339 µM in experiment [1] (setting [5]), > 10 µM in experiment [2] (setting [5]), 0.204 µM in experiment [3] and > 10 µM in experiment [4].
With `COc1cc(Nc2nc(C)cc3c2nc(-c2ccc(F)cc2)n3C)ccc1-c1ocnc1C` [Compound 125], the IC50 in experiment [1] (setting [5]) was 0.033 µM; in experiment [3], 0.195 µM; in experiment [4], > 10 µM.
In the same order, the values of `COc1cc(Nc2cc(C#N)cn3cc(C)nc23)ccc1-c1ocnc1C` [Compound 145] are 0.166 µM, 1.05 µM and 6.31 µM.
Turning to `COc1cc(Nc2nccn3cc(C)nc23)ccc1-c1ocnc1C` [Compound 158], the IC50 in experiment [3] is 1.86 µM; in experiment [4], > 10 µM.
On the same counts, the results for `COc1cc(Nc2cc(Cl)cn3cc(C4CCOCC4)nc23)ccc1-c1ocnc1C` [Compound 159] are 0.269 µM and > 10 µM.
`COc1cc(Nc2cc(F)cn3cc(C4CCOCC4)nc23)ccc1-c1ocnc1C` [Compound 163]: the IC50 in experiment [1] (setting [5]) was 0.245 µM; in experiment [2] (setting [5]) it was > 10 µM; in experiment [3], 0.158 µM; in experiment [4] it was > 10 µM.
Regarding `Cc1ncoc1-c1ccc(Nc2cccn3cc(CC4CCOCC4)nc23)cn1` [Compound 164], the IC50 in experiment [1] (setting [5]) came out at 1.41 µM; in experiment [2] (setting [5]), 9.33 µM; in experiment [3] it was 1.32 µM; in experiment [4] it was 6.76 µM.
On the same counts, the results for `Cc1ncc(-c2ccc(Nc3cccn4c(C)c(-c5ccccc5C(F)(F)F)nc34)cn2)o1` [Compound 167] are 0.021 µM, > 3 µM, 0.018 µM and > 10 µM.
For `COCc1c(-c2ccc(F)cc2)nc2c(Nc3ccc(-c4cnc(C)o4)c(OC)c3)cccn12` [Compound 168], the half-inhibitory concentration (IC50) in experiment [3] was 0.051 µM; in experiment [4] it was > 10 µM.
As to `Cc1cc(-c2ccc(Nc3cccn4c(C)c(-c5ccccc5Cl)nc34)cc2F)ccn1` [Compound 182], the 50% inhibitory concentration (IC50) in experiment [3] is 0.162 µM; in experiment [4] it was 7.76 µM.
In the same order, the values of `Cc1cc(-c2ccc(Nc3cccn4c(C)c(-c5ccccc5Cl)nc34)cc2)ccn1` [Compound 183] are 0.083 µM and 8.71 µM.
For the compound `Cc1ncc(-c2ccc(Nc3ccnc4c3nc(-c3ccc(F)cc3)n4C)cc2F)o1` [Compound 187], the IC50 in experiment [3] was 0.062 µM; in experiment [4] it was > 10 µM.
For the compound `Cc1ncc(-c2cnc(Nc3cccc4c3nc(-c3ccc(F)cc3)n4C)nc2)o1` [Compound 188], the IC50 in experiment [3] (Homo sapiens) and in experiment [4] (Homo sapiens) was > 10 µM throughout.
With `COc1cc(Nc2cc(C#N)nc3c2nc(-c2ccc(F)cc2)n3C)ccc1-c1cnc(C)o1` [Compound 189], the IC50 was 2.4 µM in experiment [3] and > 10 µM in experiment [4].
In the same order, the values of `Cc1ncc(-c2ccc(Nc3cc(C(C)C)nc4c3nc(-c3ccc(F)cc3)n4C)cn2)o1` [Compound 191] are 0.012 µM and > 10 µM.
In the same order, the values of `COc1nc(Nc2cccn3c(C)c(-c4ccccc4Cl)nc23)ccc1-c1ccnc(C)c1` [Compound 194] are 0.017 µM and ~6.76 µM.
Consider `Cc1ccc(F)cc1-c1cn2nccc(Nc3ccc(-c4ocnc4C)nc3)c2n1` [Compound 197], for which the results for the IC50 in experiment [3] (Homo sapiens) and in experiment [4] (Homo sapiens) were 0.55 µM and > 10 µM, respectively.
For `Cc1ccc(F)cc1-c1cn2nc(Cl)cc(Nc3ccc(-c4ocnc4C)nc3)c2n1` [Compound 198], the results for the IC50 in experiment [3] and in experiment [4] were 1.18 µM and 6.76 µM, respectively.
As for `COc1cc(Nc2cccn3c(C)c(-c4ccccc4Cl)nc23)ccc1-c1ccnc(C)c1` [Compound 201], the IC50 in experiment [3] was 0.045 µM; in experiment [4], > 10 µM.

For the origin of these results see patent publication US8946426B2, “Substituted bicyclic heterocyclic compounds as gamma secretase modulators” (Janssen Pharmaceuticals, Inc., priority 2009, dated 2015).
